Data on six compounds can be found in patent publication US20230020329A1, “Annelated 9-hydroxy-1,8-dioxo-1,3,4,8-tetrahydro-2H-pyrido[1,2-a]pyrazine-7-carboxamides as HIV integrase inhibitors, methods of preparation and application thereof” (priority 2019, published 2023).

The experiment concerns HIV-1 (IIIB strain). Put plainly: Anti-HIV cytoprotection assay (XTT), HIV-1 IIIB in CEM-SS cells. The experiment is classed as cell-based. The note with it: Human immunodeficiency virus 1, IIIB, CEM-SS, CEM-SS cell line; read-out: Inhibitory activity (EC50) against HIV-1 (IIIB strain). The method in brief: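 CEM-SS cells infected with a pre-titrated virus dose killing 85–95% of cells by day 6; protection from HIV-induced death read by XTT formazan. Compounds screened in triplicate at 30 and 10 nM, actives retested at 2 nM; AZT six-concentration curve on each plate as positive control.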
For the compound `O=C(NCc1c(F)cncc1F)c1cn2c(c(O)c1=O)C(=O)N1[C@H]3CC[C@H](C3)O[C@@H]1C2` [Compound 1.3.3, (2R,5S,13aR)-8-hydroxy-N-[(3,5-difluoropyridin-4-yl)methyl]-7,9-dioxo-2,3,4,5,7,9,13,13a-octahydro-2,5-methanopyrido[1′,2′:4,5]pyrazino[2,1-b][1,3]oxazepine-10-carboxamide], the concentration giving a half-maximal response (EC50) lay in the range of 0.002 to 0.01 µM.
In the case of `C[C@@H]1CO[C@@]23CCC[C@@H]2n2cc(C(=O)NCc4ccc(F)nc4F)c(=O)c(O)c2C(=O)N13` [Compound 2.1.1, (3aS,6R,13aS)-9-hydroxy-N-[(2,6-difluoropyridin-3-yl)methyl]-6-methyl-8,10-dioxo-1,2,3,5,6,8,10,13a-octahydrocyclopenta[b][1,3]oxazolo[3,2-a]pyrido[1,2-d]pyrazine-11-carboxamide] it was 0.002 to 0.01 µM.
`C[C@@H]1CO[C@@]23CCC[C@@H]2n2cc(C(=O)NCc4c(F)cncc4F)c(=O)c(O)c2C(=O)N13` [Compound 2.1.2, (3aS,6R,13aS)-9-hydroxy-N-[(3,5-difluoropyridin-4-yl)methyl]-6-methyl-8,10-dioxo-1,2,3,5,6,8,10,13a-octahydrocyclopenta[b][1,3]oxazolo[3,2-a]pyrido[1,2-d]pyrazine-11-carboxamide]: the EC50 was in the range of 0.002 to 0.01 µM.
Take `C[C@@H]1CO[C@@]23CCC[C@@H]2n2cc(C(=O)NCc4c(F)cc(F)nc4F)c(=O)c(O)c2C(=O)N13` [Compound 2.1.3, (3aS,6R,13aS)-9-hydroxy-6-methyl-N-[(2,4,6-trifluoropyridin-3-yl)methyl]-8,10-dioxo-1,2,3,5,6,8,10,13a-octahydrocyclopenta[b][1,3]oxazolo[3,2-a]pyrido[1,2-d]pyrazine-11-carboxamide]: the EC50 lay in the range of 0.002 to 0.01 µM.
Consider `C[C@H]1CO[C@@]23CCC[C@@H]2n2cc(C(=O)NCc4ccc(F)nc4F)c(=O)c(O)c2C(=O)N13` [Compound 2.2.1, (3aS,6S,13aS)-9-hydroxy-N-[(2,6-difluoropyridin-3-yl)methyl]-6-methyl-8,10-dioxo-1,2,3,5,6,8,10,13a-octahydrocyclopenta[b][1,3]oxazolo[3,2-a]pyrido[1,2-d]pyrazine-11-carboxamide], for which the EC50 is about 0.01 µM.
For `C[C@H]1CO[C@@]23CCC[C@@H]2n2cc(C(=O)NCc4c(F)cc(F)nc4F)c(=O)c(O)c2C(=O)N13` [Compound 2.2.3, (3aS,6S,13aS)-9-hydroxy-6-methyl-N-[(2,4,6-trifluoropyridin-3-yl)methyl]-8,10-dioxo-1,2,3,5,6,8,10,13a-octahydrocyclopenta[b][1,3]oxazolo[3,2-a]pyrido[1,2-d]pyrazine-11-carboxamide] the value was 0.002 to 0.01 µM.
